Assay results: US11168080B2, “Dynamin-1-like protein inhibitors” (Mitobridge, Inc., priority 2017, dated 2021)

Molecular target: Drp1 (Homo sapiens (Human), UniProt O00429)
Experiment: Drp1 Activity Screen: colorimetric (malachite green) GTPase assay
Type: biochemical
Conditions: GTPase activity; 0.6 μM Drp1 preincubated with 0.1 mg/mL liposomes, 1 mM GTP, 20 min at 37° C.
Method: The GTPase activity of Drp1 was assayed using a colorimetric assay similar to as described previously by Leonard M. et al. “Robust colorimetric assays for dynamin's basal and stimulated GTPase activities.” Methods Enzymol. […] Briefly, for GTPase assays of purified Drp1 inhibitor samples, 0.6 μM Drp1 preincubated with 0.1 mg/mL liposomes (consisting of 80% soybean lipids/20% cardiolipin) and inhibitor was added to 1 mM GTP in a microtiter plate for 20 min at 37° C. in 4 mM MgCl2, 10 mM Hepes (pH 7.0), 100 mM KCl, 1 mM DTT. Reactions were stopped by diluting with 0.5 mM EDTA. Samples were then incubated with malachite green reagent (1 mM malachite green and 50 mM ammonium molybdate in 1 N HCl), and the absorbance at 650 nm was measured. The reaction rates, IC50 values, and max % inhibition were determined using Excel/GraphPad Prism software.

Chain of Drp1 (O00429 whole entry): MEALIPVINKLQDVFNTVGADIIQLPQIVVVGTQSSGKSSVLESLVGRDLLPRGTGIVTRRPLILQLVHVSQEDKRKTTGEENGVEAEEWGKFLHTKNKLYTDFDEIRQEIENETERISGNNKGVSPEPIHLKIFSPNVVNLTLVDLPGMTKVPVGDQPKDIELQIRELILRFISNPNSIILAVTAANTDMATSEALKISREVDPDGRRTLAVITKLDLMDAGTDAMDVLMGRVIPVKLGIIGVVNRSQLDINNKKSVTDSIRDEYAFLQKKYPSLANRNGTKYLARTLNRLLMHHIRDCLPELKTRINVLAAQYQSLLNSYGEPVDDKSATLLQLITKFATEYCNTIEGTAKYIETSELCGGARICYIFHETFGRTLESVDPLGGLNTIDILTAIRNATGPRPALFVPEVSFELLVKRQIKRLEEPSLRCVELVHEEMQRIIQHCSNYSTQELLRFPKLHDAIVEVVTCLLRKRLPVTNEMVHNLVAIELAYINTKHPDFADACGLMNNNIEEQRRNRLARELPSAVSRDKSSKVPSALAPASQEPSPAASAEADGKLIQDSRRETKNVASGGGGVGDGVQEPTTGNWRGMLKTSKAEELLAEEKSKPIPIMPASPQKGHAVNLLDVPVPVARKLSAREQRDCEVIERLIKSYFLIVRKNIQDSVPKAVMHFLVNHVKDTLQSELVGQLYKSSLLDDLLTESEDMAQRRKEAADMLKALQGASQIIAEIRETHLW

Row | Structure (SMILES) | IC50
1 | Cc1cc(C(=O)Nc2cc(F)c(O)c(F)c2)n(Cc2csc(N3CCCCC3)n2)c1 [Compound A-24, N-(3,5-difluoro-4-hydroxyphenyl)-4-methyl-1-((2-(piperidin-1-yl)thiazol-4-yl)methyl)-1H-pyrrole-2-carboxamide] | 21.8 µM
2 | Cc1cc(Cn2cc(C)cc2C(=O)Nc2ccc(C(=O)O)cc2)nc(N2CCCCC2)c1 [Compound A-69, 4-(4-methyl-1-((4-methyl-6-(piperidin-1-yl)pyridin-2-yl)methyl)-1H-pyrrole-2-carboxamido)benzoic Acid] | 11.7 µM
3 | Cc1cc(C(=O)Nc2ccc(C(=O)O)c(C)c2)n(Cc2csc(N3CCCCC3)n2)c1 [Compound A-61, 2-methyl-4-(4-methyl-1-((2-(piperidin-1-yl)thiazol-4-yl)methyl)-1H-pyrrole-2-carboxamido)benzoic Acid] | 2.5 µM
4 | Nc1cc(C(=O)Nc2ccc(C(=O)O)cc2)n(Cc2csc(N3CCCCC3)n2)c1 [Compound A-53, 4-(4-Amino-1-((2-(piperidin-1-yl)thiazol-4-yl)methyl)-1H-pyrrole-2-carboxamido)benzoic acid] | > 100 µM
5 | O=C(Nc1ccc(-c2nn[nH]n2)cc1)c1cc(-c2ccccc2)cn1Cc1csc(N2CCCCC2)n1 [Compound A-58, N-(4-(1H-tetrazol-5-yl)phenyl)-4-phenyl-1-((2-(piperidin-1-yl)thiazol-4-yl)methyl)-1H-pyrrole-2-carboxamide] | 2.2 µM
6 | Cc1cc(C(=O)Nc2ccc(C(=O)O)cc2)n(Cc2csc(N3CCCCC3C)n2)c1 (stereo not shown) [Compound A-20, 4-(4-methyl-1-((2-(2-methylpiperidin-1-yl)thiazol-4-yl)methyl)-1H-pyrrole-2-carboxamido)benzoic Acid] | 3.9 µM
7 | Cc1cc(C(=O)Nc2ccc(C(=O)O)cc2)n(Cc2csc(N3CCCC(C)C3)n2)c1 (stereo not shown) [Compound A-19, 4-(4-methyl-1-((2-(3-methylpiperidin-1-yl)thiazol-4-yl)methyl)-1H-pyrrole-2-carboxamido)benzoic Acid] | 2.7 µM
8 | CC(=O)c1cc(C(=O)Nc2ccc(C(=O)O)cc2)n(Cc2csc(N3CCCCC3)n2)c1 [Compound A-56, 4-(4-acetyl-1-((2-(piperidin-1-yl)thiazol-4-yl)methyl)-1H-pyrrole-2-carboxamido)benzoic Acid] | > 100 µM
9 | CNC(=O)c1ccc(NC(=O)c2cc(C)cn2Cc2csc(N3CCCCC3)n2)cc1 [Compound A-22, 4-methyl-N-(4-(methylcarbamoyl)phenyl)-1-((2-(piperidin-1-yl)thiazol-4-yl)methyl)-1H-pyrrole-2-carboxamide] | 1.8 µM
10 | Cc1cc(C(=O)N[C@H]2CC[C@@H](C(=O)O)CC2)n(Cc2csc(N3CCCCC3)n2)c1 [Compound A-14, cis-4-(4-methyl-1-((2-(piperidin-1-yl)thiazol-4-yl)methyl)-1H-pyrrole-2-carboxamido)cyclohexane-1-carboxylic Acid] | 39 µM
11 | Cc1cc(C(=O)NC2COc3ccccc3C2)n(Cc2csc(N3CCCCC3)n2)c1 (stereo not shown) [Compound A-34, N-(chroman-3-yl)-4-methyl-1-((2-(piperidin-1-yl)thiazol-4-yl)methyl)-1H-pyrrole-2-carboxamide] | 9 µM
12 | CCN(CC)c1nc(Cn2cc(C)cc2C(=O)Nc2ccc(C(=O)O)cc2)cs1 [Compound A-9, 4-(1-((2-(diethylamino)thiazol-4-yl)methyl)-4-methyl-1H-pyrrole-2-carboxamido)benzoic Acid] | 51 µM
13 | Cc1cc(C(=O)Nc2ccc3c(c2)CC(=O)N3)n(Cc2csc(N3CCCCC3)n2)c1 [Compound A-41, 4-methyl-N-(2-oxoindolin-5-yl)-1-((2-(piperidin-1-yl)thiazol-4-yl)methyl)-1H-pyrrole-2-carboxamide] | 4.2 µM
14 | Cc1cc(C(=O)Nc2ccc(-c3nn[nH]n3)cc2)n(Cc2csc(N3CCCCC3)n2)c1 [Compound A-7, N-(4-(1H-tetrazol-5-yl)phenyl)-4-methyl-1-((2-(piperidin-1-yl)thiazol-4-yl)methyl)-1H-pyrrole-2-carboxamide] | 0.91 µM
15 | Cc1cc(C(=O)N[C@H]2CC[C@H](C(=O)O)CC2)n(Cc2csc(N3CCCCC3)n2)c1 [Compound A-13, trans-4-(4-methyl-1-((2-(piperidin-1-yl)thiazol-4-yl)methyl)-1H-pyrrole-2-carboxamido)cyclohexane-1-carboxylic Acid] | 5.5 µM
16 | Cc1cc(C(=O)NCc2ccccc2)n(Cc2csc(N3CCCCC3)n2)c1 [Compound A-3, N-benzyl-4-methyl-1-((2-(piperidin-1-yl)thiazol-4-yl)methyl)-1H-pyrrole-2-carboxamide] | 4.8 µM
17 | Cc1cc(C(=O)Nc2ccc(C(=O)O)nc2)n(Cc2csc(N3CCCCC3)n2)c1 [Compound A-62, 5-(4-methyl-1-((2-(piperidin-1-yl)thiazol-4-yl)methyl)-1H-pyrrole-2-carboxamido)picolinic Acid] | 17 µM

Row | Structure (SMILES) | IC50
18 | Cc1cc(C(=O)Nc2ccc(-c3cn[nH]c3)cc2)n(Cc2csc(N3CCCCC3)n2)c1 [Compound A-37, N-(4-(1H-pyrazol-4-yl)phenyl)-4-methyl-1-((2-(piperidin-1-yl)thiazol-4-yl)methyl)-1H-pyrrole-2-carboxamide] | 1.2 µM
19 | Cc1cc(C(=O)Nc2ccc(C(=O)O)cc2)n(Cc2csc(N3CCOCC3)n2)c1 [Compound A-12, 4-(4-methyl-1-((2-morpholinothiazol-4-yl)methyl)-1H-pyrrole-2-carboxamido)benzoic Acid] | 25 µM
20 | Cc1cc(C(=O)Nc2ccc(I)cc2)n(Cc2csc(N3CCCCC3)n2)c1 [Compound A-33, N-(4-iodophenyl)-4-methyl-1-((2-(piperidin-1-yl)thiazol-4-yl)methyl)-1H-pyrrole-2-carboxamide] | 4.5 µM
21 | Cc1cc(C(=O)NCc2ccc(C(=O)O)cc2)n(Cc2csc(N3CCCCC3)n2)c1 [Compound A-1, 4-((4-methyl-1-((2-(piperidin-1-yl)thiazol-4-yl)methyl)-1H-pyrrole-2-carboxamido)methyl)benzoic Acid] | 6.4 µM
22 | O=C(O)c1ccc(NC(=O)c2cc(Cl)cn2Cc2csc(N3CCCCC3)n2)cc1 [Compound A-70, 4-(4-chloro-1-((2-(piperidin-1-yl)thiazol-4-yl)methyl)-1H-pyrrole-2-carboxamido)benzoic Acid] | 2.3 µM
23 | Cc1cc(C(=O)NC2CCCOC2)n(Cc2csc(N3CCCCC3)n2)c1 (stereo not shown) [Compound A-27, 4-methyl-1-((2-(piperidin-1-yl)thiazol-4-yl)methyl)-N-(tetrahydro-2H-pyran-3-yl)-1H-pyrrole-2-carboxamide] | 9.6 µM
24 | O=C(O)c1ccc(NC(=O)c2ccccc2Cc2csc(N3CCCCC3)n2)cc1 [Compound A-11, 4-(2-((2-(piperidin-1-yl)thiazol-4-yl)methyl)benzamido)benzoic Acid] | > 100 µM
25 | Cc1cc(C(=O)Nc2ccc(C(=O)O)cc2)n(Cc2csc(-c3ccccc3)n2)c1 [Compound A-17, 4-(4-methyl-1-((2-phenylthiazol-4-yl)methyl)-1H-pyrrole-2-carboxamido)benzoic Acid] | 3.8 µM
26 | Cc1cc(C(=O)Nc2ccc(C(=O)O)cc2F)n(Cc2csc(N3CCCCC3)n2)c1 [Compound A-66, 3-fluoro-4-(4-methyl-1-((2-(piperidin-1-yl)thiazol-4-yl)methyl)-1H-pyrrole-2-carboxamido)benzoic Acid] | 7.8 µM
27 | Cc1ccc(C(=O)Nc2ccccc2)n1Cc1csc(N2CCCCC2)n1 [Compound A-39, 5-methyl-N-phenyl-1-((2-(piperidin-1-yl)thiazol-4-yl)methyl)-1H-pyrrole-2-carboxamide] | 36 µM
28 | Cc1cc(C(=O)Nc2ccc(-c3ccc(C(=O)O)cc3)cc2)n(Cc2csc(N3CCCCC3)n2)c1 [Compound A-71, 4′-(4-methyl-1-((2-(piperidin-1-yl)thiazol-4-yl)methyl)-1H-pyrrole-2-carboxamido)-[1,1′-biphenyl]-4-carboxylic Acid] | 0.72 µM
29 | Cc1cc(C(=O)Nc2ccc(C(=O)O)cc2C)n(Cc2csc(N3CCCCC3)n2)c1 [Compound A-54, 3-Methyl-4-(4-methyl-1-((2-(piperidin-1-yl)thiazol-4-yl)methyl)-1H-pyrrole-2-carboxamido)benzoic acid] | > 100 µM
30 | Cc1cc(C(=O)NC2CCCC2)n(Cc2csc(N3CCCCC3)n2)c1 [Compound A-25, N-cyclopentyl-4-methyl-1-((2-(piperidin-1-yl)thiazol-4-yl)methyl)-1H-pyrrole-2-carboxamide] | 5.7 µM
31 | Cc1cc(C(=O)Nc2ccccn2)n(Cc2csc(N3CCCCC3)n2)c1 [Compound A-30, 4-methyl-1-((2-(piperidin-1-yl)thiazol-4-yl)methyl)-N-(pyridin-2-yl)-1H-pyrrole-2-carboxamide] | 8.7 µM
32 | Cc1cc(C(=O)Nc2ccc(C(=O)O)cc2)n(Cc2csc(N3CCCCCC3)n2)c1 [Compound A-18, 4-(1-((2-(azepan-1-yl)thiazol-4-yl)methyl)-4-methyl-1H-pyrrole-2-carboxamido)benzoic Acid] | 3.4 µM
33 | Cc1cc(C(=O)Nc2ccc(-c3nn[nH]n3)cc2)n(Cc2cccc(N3CCCCC3)n2)c1 [Compound A-67, N-(4-(1H-tetrazol-5-yl)phenyl)-4-methyl-1-((6-(piperidin-1-yl)pyridin-2-yl)methyl)-1H-pyrrole-2-carboxamide] | 2.1 µM

Same assay, conditions: max % inhibition of Drp1 GTPase activity; 0.6 μM Drp1, 0.1 mg/mL liposomes, 1 mM GTP, 20 min at 37° C.

Row | Structure (SMILES) | max % inh
34 | Cc1cc(C(=O)NCc2ccccc2)n(Cc2csc(N3CCCCC3)n2)c1 [Compound A-3, N-benzyl-4-methyl-1-((2-(piperidin-1-yl)thiazol-4-yl)methyl)-1H-pyrrole-2-carboxamide] | 70%
35 | Cc1cc(C(=O)Nc2ccc(I)cc2)n(Cc2csc(N3CCCCC3)n2)c1 [Compound A-33, N-(4-iodophenyl)-4-methyl-1-((2-(piperidin-1-yl)thiazol-4-yl)methyl)-1H-pyrrole-2-carboxamide] | 34%
36 | Cc1ccc(C(=O)Nc2ccccc2)n1Cc1csc(N2CCCCC2)n1 [Compound A-39, 5-methyl-N-phenyl-1-((2-(piperidin-1-yl)thiazol-4-yl)methyl)-1H-pyrrole-2-carboxamide] | 26%
37 | Cc1cc(C(=O)Nc2ccc(-c3ccc(C(=O)O)cc3)cc2)n(Cc2csc(N3CCCCC3)n2)c1 [Compound A-71, 4′-(4-methyl-1-((2-(piperidin-1-yl)thiazol-4-yl)methyl)-1H-pyrrole-2-carboxamido)-[1,1′-biphenyl]-4-carboxylic Acid] | 83%
